Test [1] is described as follows: Binding affinity against human Elastase for more active diasteriomer.
The target in test [2] is Neutrophil elastase (Homo sapiens) (UniProt P08246). In words: Binding affinity against human Elastase.
Test [3] concerns the target Cathepsin G (Rattus norvegicus). In words: Binding affinity against rat Cathepsin G.

Peptide text beside a SMILES is read from it. * marks the point of attachment. MeOSuc = COC(=O)CCC(=O)*; Cbz = O=C(OCc1ccccc1)*; Boc = CC(C)(C)OC(=O)*; CF3 = FC(F)(F)*

Chain of Neutrophil elastase (Homo sapiens) (P08246 whole entry, looked up): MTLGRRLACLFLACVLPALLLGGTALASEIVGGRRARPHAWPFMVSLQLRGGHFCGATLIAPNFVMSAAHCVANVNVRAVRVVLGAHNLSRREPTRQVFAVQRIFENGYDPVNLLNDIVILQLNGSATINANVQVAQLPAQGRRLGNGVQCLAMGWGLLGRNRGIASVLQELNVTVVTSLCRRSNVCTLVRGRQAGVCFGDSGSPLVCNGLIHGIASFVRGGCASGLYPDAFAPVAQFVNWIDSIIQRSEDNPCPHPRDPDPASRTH

In the case of `CCOC(=O)C(F)(F)C(=O)[C@@H](NC(=O)[C@@H]1CCCN1C(=O)[C@H](C)NC(=O)[C@H](C)NC(=O)CCC(=O)OC)C(C)C`, the Ki in test [1] came to 4.3 µM.

`COC(=O)CCC(=O)NCCCC[C@H](NS(=O)(=O)C12CC3CC(CC(C3)C1)C2)C(=O)N1CCC[C@H]1C(=O)N[C@H](C(=O)C(F)(F)F)C(C)C` displayed a Ki in test [1] of 0.00058 µM.

Regarding `COC(=O)C(=O)[C@H](C)NC(=O)[C@@H]1CCCN1C(=O)[C@H](C)NC(=O)[C@@H]1CCCN1C(C)=O`, the Ki in test [1] worked out at 0.85 µM.

In turn, `CC(=O)N[C@@H](C)C(=O)N[C@@H](C)C(=O)N1CCC[C@H]1C(=O)N[C@@H](C)C(=O)C(F)(F)F` (Ac-AAPA-CF3) gave an inhibition constant (Ki) in test [2] of 24 µM.

`CC(C)[C@H](NC(=O)[C@@H]1CCCN1C(=O)[C@H](C)NC(=O)[C@H](C)NC(=O)OC(C)(C)C)C(=O)C(F)(F)F` (Boc-AAPV-CF3) showed a Ki in test [1] of 0.044 µM.

As to `CC(C)[C@H](NC(=O)[C@@H]1CCCN1C(=O)[C@H](C)NC(=O)[C@H](C)NC(=O)OCc1ccccc1)C(=O)C(F)(F)F` (Cbz-AAPV-CF3), the affinity in test [1] corresponds to a Ki of 0.001 µM.

Molecule `COC(=O)CCC(=O)N[C@H](C(=O)N1CCC[C@H]1C(=O)N[C@@H](Cc1ccccc1)C(=O)C(F)(F)F)C(C)C` (MeOSuc-Val-Pro-Phe-CF3) yielded a Ki in test [3] of 0.2 µM. That is a sub-micromolar value.

For the origin of these results see BindingDB's records for doi:10.1021/jm00163a063 (Merrell Dow Research Institute, 1990).
